# Literature values, collected in US6485659B1, “Electrical apparatus with dielectric fluid blend of polyalphaolefins and polyol esters or triglycerides” (priority 1995, dated 2002).
# Read-outs that look alike come from different tables or passages of the source.
# Columns and labels:
# [1] = test system: rats; settings: rat, in vivo
# [2] = within 7 days; Nippon
# [3] = test system: rats; settings: for chronic toxicity findings: rat, in vivo, po
substance,measurement,setting,value
phenyl-ortho-tolyl-ethane [POXE],LD50 in rats,[1],"2.3 ml/kg (Dielectrol III, Saperstein and Faeder article)"
same,biodegradation,[2],100% biodegradation within 7 days (Nippon)
same,chronic toxicity findings,[3],"showed lower weight gain, and liver/kidney enlargement (Dielectrol - Saperstein and Faeder.)"
same,chronic toxicity findings,[3]; 146 mg/kg/day,<146 mg/kg/day showed little to no effects. (Nippon Oil/Saperstein and Faeder)
same,mortality,"[3]; rats, oral, 0.58 ml/kg/day for 1 month, Dielectrol, Saperstein and Faeder","In rats, 0.58 ml/kg/day for 1 month yielded 50% mortality. 0.146 ml/kg/day for 3-6 months"
